Patent EP1724268A1, “COMPOUND HAVING TGF-BETA INHIBITORY ACTIVITY AND PHARMACEUTICAL COMPOSITION CONTAINING SAME” (KIRIN BEER KABUSHIKI KAISHA, priority 2004, dated 2005)

Test system: TGFβ signal
Experiment: TGFβ signal inhibitory activity, (SBE)4-Luc reporter in A549 cells (Test Examples 1A and 1B)
Type: cell-based, human
Conditions: Homo sapiens, A549, TGFβ-1 2 ng/ml, 4 hr, Table 1A, read-out: TGFβ inhibition rate, %; for inhibition at 3 µM: test compound 3 µM; for inhibition at 10 µM: test compound 10 µM
Procedure, shortened: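 Compounds at 3 µM and 10 µM (some 1 µM) were added with 2 ng/ml TGFβ-1 to A549 cells stably expressing an SBE-driven luciferase, then cultured 4 hr. Chemiluminescent luciferase signal gave % inhibition versus TGFβ-alone and no-TGFβ controls.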

| SMILES | inhibition at 3 µM | inhibition at 10 µM |
| --- | --- | --- |
| COc1cc2nccc(Oc3cc4ccncc4nc3-c3ccccc3)c2cc1OC [Compound 98, 3-(6,7-Dimethoxy-quinolin-4-yloxy)-2-phenyl-[1,7]naphthyridine] | 94% | 100% |
| COc1cc2nccc(Oc3cc4c(nc3-c3ccccc3)NCCC4)c2cc1C(=O)NCc1ccccc1 [Compound 99, 7-Methoxy-4-(2-phenyl-5,6,7,8-tetrahydro-[1,8]naphthyridin-3-yloxy)-quinoline-6-carboxylate benzylamide] | 76% | 92% |
| Fc1cc2nccc(Oc3cc4cccnc4nc3-c3ccccc3)c2cc1F [Compound 101] | 54% | 98% |
| Fc1cc2nccc(Oc3cc4cccnc4nc3-c3ccccc3)c2c(F)c1F [Compound 102, 2-Phenyl-3-(5,6,7-trifluoro-quinolin-4-yloxy)-[1,8]naphthyridine] | 45% | 92% |
| Cc1cc(Oc2ccnc3ccc(F)cc23)c(-c2ccccn2)nc1C [Compound 103, 3-(6-Fluoro-quinolin-4-yloxy)-5,6-dimethyl-[2,2']bipyridine] | 99% | 100% |
| COc1cc2c(Oc3cc(C)c(C)nc3-c3ccccn3)ccnc2cc1F [Compound 104, 3-(7-Fluoro-6-methoxy-quinolin-4-yloxy)-5,6-dimethyl-[2,2']bipyridine] | 99% | 100% |
| COc1cc2c(Oc3cc(C)c(C)nc3-c3ccccn3)ccnc2cc1Cl [Compound 105, 3-(7-Chloro-6-methoxy-quinolin-4-yloxy)-5,6-dimethyl-[2,2']bipyridine] | 100% | 100% |
| Cc1cc(Oc2ccnc3cc(-c4cccc(O)c4)ccc23)c(-c2ccccn2)nc1C [Compound 106, 3-[4-(5,6-Dimethyl-[2,2']bipyridinyl-3-yloxy)-quinolin-7-yl]-phenol] | 99% | 100% |
| Cc1cc(Oc2ccnc3cc(-c4ccc(O)cc4)ccc23)c(-c2ccccn2)nc1C [Compound 107, 4-[4-(5,6-Dimethyl-[2,2']bipyridinyl-3-yloxy)-quinolin-7-yl]-phenol] | 100% | 100% |
| Cc1cc(Oc2ccnc3cc(-c4ccccc4N)ccc23)c(-c2ccccn2)nc1C [Compound 108, 2-[4-(5,6-Dimethyl-[2,2']bipyridinyl-3-yloxy)-quinolin-7-yl]-phenylamine] | 96% | 100% |
| COc1cc2nccc(Oc3cc(C)c(C)nc3-c3ccccn3)c2cc1F [Compound 110, 3-(6-Fluoro-7-methoxy-quinolin-4-yloxy)-5,6-dimethyl-[2,2']bipyridine] | 100% | 100% |
| Cc1cc(Oc2ccnc3c(F)cc(F)cc23)c(-c2ccccn2)nc1C [Compound 111, 3-(6,8-Difluoro-quinolin-4-yloxy)-5,6-dimethyl-[2,2']bipyridine] | 43% | 84% |
| COC(=O)c1ccc2c(Oc3cc4cccnc4nc3-c3ccccc3)ccnc2c1 [Compound 113, Methyl 4-(2-Phenyl-[1,8]naphthyridin-3-yloxy)-quinoline-7-carboxarlate] | 95% | 100% |
| COc1cc2nccc(Oc3ccc(F)nc3-c3ccccn3)c2cc1OC [Compound 115, 3-(6,7-Dimethoxy-quinolin-4-yloxy)-6-fluoro-[2,2']bipyridine] | 100% | 100% |
| COC(=O)c1cc2nccc(Oc3cc4cccnc4nc3-c3ccccc3)c2cc1OC [Compound 116, Methyl 6-methoxy-4-(2-phenyl-[1,8]naphthyridin-3-yloxy)-quinoline-7-carboxylate] | 99% | 100% |
| CCc1ccc(Oc2ccnc3ccccc23)c(-c2ncccn2)n1 [Compound 117, 4-(6-Ethyl-2-pyrimidin-2-yl-pyridin-3-yloxy)-quinoline] | 96% | 100% |
